The record followed here is PubChem BioAssay AID328 (DTP/NCI, 2004).

Values joined by “and” are separate entries in the source; they are usually repeats but may differ in a detail not shown here. Equal values may be shown once. Inconclusive results and toxic doses are left out.

In the assay the test system is BDF1 mice, P388 leukemia ip, median survival T/C. Kind of assay: NCI In Vivo Anticancer Drug Screen. Data for tumor model P388 Leukemia (intraperitoneal) in B6D2F1 (BDF1) mice. As to conditions: endpoint: median survival time, higher = longer survival. A digest of the protocol:
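Vehicle-dosed animals serve as the reference; survival of compound-dosed, tumour-implanted mice is divided by it.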

Where [1] appears, read: dose: 25.0 mg/kg/injection, schedule: Q01DX009 (ip), vehicle: saline with Tween-80.
Where [2] appears, read: dose: 50.0 mg/kg/injection, schedule: Q01DX009 (ip), vehicle: saline with Tween-80.
[3] abbreviates: dose: 50.0 mg/kg/injection, schedule: Q04DX003 (ip), vehicle: saline with Tween-80.
[4] abbreviates: dose: 100.0 mg/kg/injection, schedule: Q01DX009 (ip), vehicle: saline with Tween-80.
Where [5] appears, read: dose: 100.0 mg/kg/injection, schedule: Q04DX003 (ip), vehicle: saline with Tween-80.
[6] abbreviates: dose: 200.0 mg/kg/injection, schedule: Q01DX009 (ip), vehicle: saline with Tween-80.
Setting [7] is: dose: 200.0 mg/kg/injection, schedule: Q04DX003 (ip), vehicle: saline with Tween-80.
[8] abbreviates: dose: 400.0 mg/kg/injection, schedule: Q04DX003 (ip), vehicle: saline with Tween-80.
The mark [9] stands for this setting: dose: 100.0 mg/kg/injection, schedule: Q04DX003 (ip), vehicle: Klucel (hydroxypropylcellulose) (HPC).
The mark [10] stands for this setting: dose: 200.0 mg/kg/injection, schedule: Q04DX003 (ip), vehicle: Klucel (hydroxypropylcellulose) (HPC).
Setting [11] is: dose: 400.0 mg/kg/injection, schedule: Q04DX003 (ip), vehicle: Klucel (hydroxypropylcellulose) (HPC).
[12] abbreviates: dose: 400.0 mg/kg/injection, schedule: Q01DX009 (ip), vehicle: saline with Tween-80.
Where [13] appears, read: dose: 12.5 mg/kg/injection, schedule: Q01DX009 (ip), vehicle: saline with Tween-80.
Setting [14] is: dose: 25.0 mg/kg/injection, schedule: Q01DX009 (ip), vehicle: saline.
Setting [15] is: dose: 50.0 mg/kg/injection, schedule: Q01DX009 (ip), vehicle: saline.
The mark [16] stands for this setting: dose: 100.0 mg/kg/injection, schedule: Q01DX009 (ip), vehicle: saline.
[17] abbreviates: dose: 400.0 mg/kg/injection, schedule: Q01DX009 (ip), vehicle: saline.

For `Cc1c(C#N)c2nc(C(=O)c3ccc(Br)cc3)cc(-c3ccc(Br)cc3)n2c1C`, the T/C under setting [1] is 109 % of control; the T/C under setting [2] is 104 % of control; the T/C under setting [3] is 87 % of control; the T/C under setting [4] is 104 % of control; the T/C under setting [5] is 91 % of control; the T/C under setting [6] is 109 % of control. Moreover, the T/C runs as follows: under setting [7], 87 % of control; under setting [8], 87 % of control.
In the case of `COc1cc(NC(C)CCCN)c2ncccc2c1Oc1ccc(Cl)cc1` (stereo not given), the T/C under setting [2] was 100 % of control.
With `Cc1[nH]c(N)nc(=S)c1CCC(=O)O`, the T/C runs as follows: under setting [9], 100 % of control; under setting [10], 104 % of control; under setting [11], 95 % of control.
As to `[Co].[N-]=C=S.[N-]=C=S.[N-]=C=S.[NH2-].[NH2-].[NH2-]`, the T/C by setting is: (dose: 12.5 mg/kg/injection, schedule: Q01DX005 (ip), vehicle: saline with Tween-80) 107 % of control; (dose: 25.0 mg/kg/injection, schedule: Q01DX005 (ip), vehicle: saline with Tween-80) 110 % of control; (dose: 50.0 mg/kg/injection, schedule: Q01DX005 (ip), vehicle: saline with Tween-80) 117 % of control; (dose: 100.0 mg/kg/injection, schedule: Q01DX001 (ip), vehicle: suspension in saline) 98 % of control; (dose: 200.0 mg/kg/injection, schedule: Q01DX001 (ip), vehicle: suspension in saline) 120 % of control; (dose: 400.0 mg/kg/injection, schedule: Q01DX001 (ip), vehicle: suspension in saline) 98 % of control.
Turning to `CCCC(O)C(NC(=O)CCl)C(=O)O` (stereo not given), the T/C reads like this: (dose: 125.0 mg/kg/injection, schedule: Q01DX005 (ip), vehicle: other) 104 % of control; (dose: 250.0 mg/kg/injection, schedule: Q01DX005 (ip), vehicle: other) 104 % of control.
Take `O=C(O)CCSSCCC(=O)O`: the T/C is, setting by setting: under setting [9], 95 % of control; under setting [10], 100 % of control.
On to `CS(=O)(=O)OCCCCCCCCCOS(C)(=O)=O`, for which the T/C (dose: 33.0 mg/kg/injection, schedule: Q04DX003 (ip), vehicle: saline with Tween-80) was 104 % of control and the T/C under setting [3] is 113 % of control.
On to `CC(=O)c1ccc(NC(=O)C(F)(F)F)cc1`, for which the T/C is, setting by setting: under setting [3], 111 % of control; under setting [5], 96 % of control; under setting [7], 103 % of control; under setting [8], 103 % of control.
Turning to `COc1ccc(N=C(c2ccccc2)c2ccccc2)cc1`, the T/C reads like this: under setting [4], 91 % of control; under setting [5], 92 % of control; under setting [6], 108 % of control; under setting [7], 100 % of control; under setting [12], 108 % of control; under setting [8], 96 % of control.
On to `O=C1C=CC(=O)c2cc(Cl)c(Cl)cc21`, for which the T/C runs as follows: (dose: 3.13 mg/kg/injection, schedule: Q01DX009 (ip), vehicle: saline with Tween-80) 118 % of control; under setting [13], 86 % of control.
For `COc1ccc(/C=C/C(=N\O)c2ccc(OC)c(OC)c2)cc1OC`, the T/C under setting [14] is 118 % of control; the T/C (dose: 25.0 mg/kg/injection, schedule: Q04DX003 (ip), vehicle: saline) was 105 % of control; the T/C under setting [15] is 97 % of control; the T/C (dose: 50.0 mg/kg/injection, schedule: Q04DX003 (ip), vehicle: saline) is 96 % of control; the T/C under setting [16] is 120 % of control; the T/C (dose: 100.0 mg/kg/injection, schedule: Q04DX003 (ip), vehicle: saline) was 105 % of control. In addition, the T/C is 114 % of control (dose: 200.0 mg/kg/injection, schedule: Q04DX003 (ip), vehicle: saline); 103 % of control under setting [17]; 105 % of control (dose: 400.0 mg/kg/injection, schedule: Q04DX003 (ip), vehicle: saline).
On to `OC1CC2C3C4C1C1C2C3C41` (stereo not given), for which the T/C (dose: 100.0 mg/kg/injection, schedule: Q01DX001 (ip), vehicle: saline) was 95 % of control; the T/C under setting [9] was 115 % of control; the T/C (dose: 200.0 mg/kg/injection, schedule: Q01DX001 (ip), vehicle: saline) was 86 % of control; the T/C under setting [10] is 115 % of control; the T/C under setting [11] is 90 % of control.
For `Nc1cc(I)c2cccnc2c1O`, the T/C by setting is: (dose: 6.25 mg/kg/injection, schedule: Q01DX009 (ip), vehicle: saline) 93 % of control and 115 % of control; (dose: 12.5 mg/kg/injection, schedule: Q01DX009 (ip), vehicle: saline) 90 % of control and 99 % of control; under setting [14], 123 % of control; under setting [15], 117 % of control; under setting [16], 124 % of control.
Turning to `CCOC(=O)c1ccc2c3c([nH]c2c1C)-c1ccccc1CC3`, the T/C by setting is: under setting [2], 120 % of control; under setting [4], 111 % of control; under setting [6], 118 % of control.
Take `CCn1c(C)nc2cc(C(N)=O)ccc21`: the T/C under setting [3] is 95 % of control, the T/C under setting [5] is 90 % of control and the T/C under setting [7] is 113 % of control.
With `NC(=O)Oc1cc(OC(N)=O)cc(N(CCCl)CCCl)c1`, the T/C under setting [13] is 158 % of control; the T/C under setting [1] is 181 % of control; the T/C (dose: 25.0 mg/kg/injection, schedule: Q04DX003 (ip), vehicle: other) is 179 % of control; the T/C under setting [2] was 168 % of control; the T/C (dose: 50.0 mg/kg/injection, schedule: Q04DX003 (ip), vehicle: other) was 186 % of control; the T/C (dose: 100.0 mg/kg/injection, schedule: Q04DX003 (ip), vehicle: other) is 216 % of control.
In the case of `CNc1nc2ncn(C)c2c(=O)[nH]1`, the T/C by setting is: under setting [16], 100 % of control; (dose: 200.0 mg/kg/injection, schedule: Q01DX009 (ip), vehicle: saline) 109 % of control; under setting [17], 95 % of control.
On to `CC(C)C1NC(=O)C2CCCN2C1=O` (stereo not given), for which the T/C was 100 % of control under setting [4]; 109 % of control under setting [5]; 100 % of control under setting [6]; 113 % of control under setting [7]; 123 % of control under setting [12]; 118 % of control under setting [8].
`Cc1ccc(S(=O)(=O)c2ccc(Sc3cccc[n+]3[O-])c3nonc23)cc1`: the T/C is, setting by setting: under setting [1], 119 % of control; under setting [4], 111 % of control.
For `CNCc1c2c(O)c3c(O)c(C)c4c(c3c1O)C(=O)C(C)(O/C=C/C(OC)C(C)C(OC(C)=O)C(C)C(O)C(C)C(O)C(C)/C=C/C=C(/C)C(=O)N2)O4` (stereo not given), the T/C was 100 % of control under setting [2], 89 % of control under setting [4] and 116 % of control under setting [6].
As to `Cn1cnc2c(SCc3ccccc3)ncnc21`, the T/C by setting is: under setting [4], 109 % of control; under setting [6], 113 % of control; under setting [12], 90 % of control.
Turning to `O=C(Nc1ccc(Nc2ccncc2)cc1)c1ccc(Nc2ccnc3ccc([N+](=O)[O-])cc23)cc1`, the T/C runs as follows: (dose: 100.0 mg/kg/injection, schedule: Q01DX009 (ip), vehicle: Klucel (hydroxypropylcellulose) (HPC)) 90 % of control; under setting [9], 100 % of control; (dose: 200.0 mg/kg/injection, schedule: Q01DX009 (ip), vehicle: Klucel (hydroxypropylcellulose) (HPC)) 90 % of control; under setting [10], 100 % of control; (dose: 400.0 mg/kg/injection, schedule: Q01DX009 (ip), vehicle: Klucel (hydroxypropylcellulose) (HPC)) 95 % of control; under setting [11], 90 % of control.
Take `C/C=C(/C)C(=O)O[C@H]1CCN2CC=C(COC(=O)[C@@](O)([C@H](C)OC)C(C)(C)O)[C@H]12`: the T/C reads like this: (dose: 12.5 mg/kg/injection, schedule: Q01DX010 (ip), vehicle: saline) 95 % of control; (dose: 25.0 mg/kg/injection, schedule: Q01DX010 (ip), vehicle: saline) 100 % of control.
Turning to `Nc1nc2ncc(CNc3ccc(C(=O)NC(CCC(=O)O)C(=O)O)cn3)nc2c(=O)[nH]1` (stereo not given), the T/C reads like this: (dose: 37.5 mg/kg/injection, schedule: Q01DX009 (ip), vehicle: saline with Tween-80) 92 % of control; (dose: 62.5 mg/kg/injection, schedule: Q01DX009 (ip), vehicle: saline with Tween-80) 92 % of control; (dose: 75.0 mg/kg/injection, schedule: Q01DX009 (ip), vehicle: saline with Tween-80) 107 % of control.
In the case of `COC(C)(OC)C(N)=O`, the T/C was 100 % of control under setting [5], 100 % of control under setting [7] and 104 % of control under setting [8].
As for `Cc1cc(N(CCCl)CCCl)ccc1C=Nc1ccccc1C(=O)O`, the T/C is 164 % of control under setting [4] and 180 % of control under setting [6].
